Like-named read-outs stand apart in the source and are kept apart here.
How the values were obtained:
[1] = Single ascending dose Phase I study in healthy volunteers; assay type: in vivo, human; details: oral capsule, top-line clinical data
Excerpt: In a randomized, double-blind, placebo-controlled, single ascending dose Phase I study enrolling 46 healthy volunteers, participants were randomized 3:1 to receive a single dose of Compound B or placebo administered via an oral capsule.

[2] = test system: TNFα, IL-6 and IL-10 cytokine levels; assay: LPS model of acute inflammation in mice; assay type: in vivo; details: 10 mg/kg oral gavage; LPS IV 1 h later; blood 2 h after LPS
Protocol: Acute murine models of inflammation have previously been described (see for example, Engelberts I et. al., Lymphokine Cytokine Res. 10(1-2):127-31 (1991) and Durez P et al., J Exp Med. 177:551-5 (1993)). In these models, mice or rats are administered the compound of interest followed by an injection of LPS (LPS stands for lipopolysaccharide, 100 ng IV administration) one hour later. LP S is a component of bacterial cell walls and elicits a rapid and strong systemic inflammatory response. Two hours after LPS injection, blood is collected, plasma and serum are isolated and cytokine levels are measured. The concentrations of TNFα and IL-6 in blood increase after stimulation with bacterial lipopolysaccharide (LP S). Measurement of cytokine production is carried out with either ELISA or cytokine bead assay (CBA).
The sGC stimulator Compound B was assessed in such an animal model using C57BL/6 mice. The structure of Compound B is depicted below:
The ability of Compound B to modulate cytokine release in vivo was assessed. Compound B was administered by oral gavage (formulated in methylcellulose as the carrier) at 1 and 10 mg/kg doses and the levels of the pro-inflammatory cytokines TNFα and IL-6 were measured, as well as the anti-inflammatory cytokine IL-10. Vehicle (V) and dexamethasone (dex, 5 mg/kg) were used as negative and positive controls, respectively, and 10 mice were used per group.

[3] = Distribution of sGC stimulators in tissues, rats (liver and plasma by LC-MS/MS); assay type: in vivo; details: Wistar, rat, 2 h post fifth dose, male rats, read-out: total Liver:Plasma ratio
Protocol: The purpose of this experiment was to determine compound concentrations in the plasma and tissues of animals dosed with sGC stimulators for 5 days Q.D.
In a first experiment, the sGC stimulator Compound B (described previously in Example 2) was dosed for 5 Days Q.D. to male Wister rats. Rats were divided into four study groups and dosed according to the below table:
The animals were dosed daily for five consecutive days according the table above. On each day of dosing, frozen aliquots of each dosing solution were thawed and the animals were weighed and dosed accordingly. On day 5, two hours post the fifth dose, blood was collected by orbital bleed. Blood samples were collected in EDTA tubes pre-loaded with 5 μL of 100 mM IBMX Plasma was be separated by centrifugation for 10 minutes at 4° C. and then stored at −80° C.
A Ketamine/Xylazine/pbs solution as a 5:1:4 ratio was administered I.P. at 1 ul per gram. Once the rat was fully anesthetized (as determined by checking its reflexes) and while the heart was still beating, a needle was inserted into the left ventricle. Approximately 20 mls of PBS/IBMX/heparin solution were then perfused. The right atrium was snipped, and perfusion continued for approximately 10 additional mls (30 mls total). At this point, the femoral artery was snipped and perfusion was continued until there was no longer blood (only clear fluid) collecting in the abdominal cavity. Several tissues, including liver, were isolated and weighed followed by snap freezing.
A second separate and similar experiment was carried out with Compound C. The structure of Compound C is depicted below. The preparation and characterization of this compound was described in patent application publication WO2014144100, published 18 Sep. 2014.
For this second experiment, rats were divided into four study groups and dosed according to the below table:
Samples were analyzed using liquid chromatography (LC) with tandem mass spectrometric detection (MS/MS) using positive electrospray ionization. The standard curve range was from 0.1 to 400 ng/mL. […]
In order to prepare the tissues for measurement, the naïve livers and the livers isolated after treatment were removed from the −80° C. freezer and placed on liquid nitrogen. The liver weight was recorded and then the tissue placed in a Geno grinding vial containing two 7/16″ steel beads. […] Approximately 200 mg of tissue from each sample was weighed and recorded. […] The samples were analyzed by LC-MS/MS.
Total liver and plasma concentrations were measured and liver concentrations were corrected for total liver weight. Liver: Plasma ratios were determined by dividing liver compound concentration by the plasma compound concentration. […]

Kp ([3]; 1 mg/kg PO Q.D. 5 days): 19
Kp ([3]; 10 mg/kg PO Q.D. 5 days): 20
Structure (SMILES): OC(CNc1nc(-c2cc(-c3ccon3)n(Cc3ccccc3F)n2)ncc1F)(C(F)(F)F)C(F)(F)F [Compound B]
distribution to tissues [1]: evidence of extensive distribution to tissues
levels of IL-6 [2]: significantly reduced
levels of IL-10 [2]: increasing
levels of TNFα [2]: significantly reduced

From patent publication US11357777B2, “Use of sGC stimulators for the treatment of nonalcoholic steatohepatitis (NASH)” (Cyclerion Therapeutics, Inc., priority 2016, dated 2022)
